Experiment: Log of liquid dish neat product liquid-air partition coefficient
Type: physicochemical
Details: for Log of liquid dish neat product liquid-air partition coefficient (Comment Code K/L): Comment Code letters K and/or L

For `C[C@H]1[C@@H]2C[C@H](C[C@@]13C=CC(=O)CC3)C2(C)C` [Material 1143], the “Comment Code: Log of liquid dish neat product liquid-air partition coefficient” value (from here on “Comment Code: Log”) was “K (Log of liquid dish neat product liquid-air partition coefficient greater than or equal to 7)” and the “Log of liquid dish neat product liquid-air partition coefficient (Comment Code K/L)” value (“Log … (Comment Code K/L)” below) was “K (Log of liquid dish neat product liquid-air partition coefficient greater than or equal to 7)”.

In the case of `CC1(C)C2CCC3(C2)C1C1(CCC3(C)C)OCCO1` (stereo not shown) [Material 1144], the “Comment Code: Log” value is reported as “K (Log of liquid dish neat product liquid-air partition coefficient greater than or equal to 7)” and the “Log … (Comment Code K/L)” value is reported as “K (Log of liquid dish neat product liquid-air partition coefficient greater than or equal to 7)”.

With `CC1(C)C2CCC3(C2)C1C1(CCC3(C)C)OCCO1` (stereo not shown) [Material 1145] the “Comment Code: Log” value was “K (Log of liquid dish neat product liquid-air partition coefficient greater than or equal to 7)” and the “Log … (Comment Code K/L)” value was “K (Log of liquid dish neat product liquid-air partition coefficient greater than or equal to 7)”.

With `C=C1CCC2OC2(C)CCC2C1CC2(C)C` (stereo not shown) [Material 1148] the “Comment Code: Log” value was “K (Log of liquid dish neat product liquid-air partition coefficient greater than or equal to 7)” and the “Log … (Comment Code K/L)” value was “K (Log of liquid dish neat product liquid-air partition coefficient greater than or equal to 7)”.

For `CC1(C)C2CCC3(C2)C1C(=O)CCC3(C)C` (stereo not shown) [Material 1149], the “Comment Code: Log” value was “K (Log of liquid dish neat product liquid-air partition coefficient greater than or equal to 7)” and the “Log … (Comment Code K/L)” value was “K (Log of liquid dish neat product liquid-air partition coefficient greater than or equal to 7)”.

From patent US20170333591A9, “ABSORBENT ARTICLE COMPRISING MALODOR REDUCTION COMPOSITIONS” (The Procter & Gamble Company, priority 2014, published 2017)
